# Test results: patent US20250163054A1, “SUBSTITUTED BICYCLIC HETEROARYL COMPOUNDS USEFUL AS INHIBITORS OF TLR9” (Bristol-Myers Squibb Company, priority 2022, published 2025)
# Key:
# Assay type in all cases: cell-based
# [1] = biological target: T1, human TLR9 (Homo sapiens, UniProt Q9NR96); experiment: TLR7/8/9 Inhibition Reporter Assays (TLR9); conditions: HEK-Blue cells overexpressing human TLR9, SEAP reporter, stimulated with TLR9 ligand ODN2006
# T1 construct: host or cells: HEK-Blue cells (HEK293-derived reporter line)
# T1 sequence (Q9NR96 26-1032): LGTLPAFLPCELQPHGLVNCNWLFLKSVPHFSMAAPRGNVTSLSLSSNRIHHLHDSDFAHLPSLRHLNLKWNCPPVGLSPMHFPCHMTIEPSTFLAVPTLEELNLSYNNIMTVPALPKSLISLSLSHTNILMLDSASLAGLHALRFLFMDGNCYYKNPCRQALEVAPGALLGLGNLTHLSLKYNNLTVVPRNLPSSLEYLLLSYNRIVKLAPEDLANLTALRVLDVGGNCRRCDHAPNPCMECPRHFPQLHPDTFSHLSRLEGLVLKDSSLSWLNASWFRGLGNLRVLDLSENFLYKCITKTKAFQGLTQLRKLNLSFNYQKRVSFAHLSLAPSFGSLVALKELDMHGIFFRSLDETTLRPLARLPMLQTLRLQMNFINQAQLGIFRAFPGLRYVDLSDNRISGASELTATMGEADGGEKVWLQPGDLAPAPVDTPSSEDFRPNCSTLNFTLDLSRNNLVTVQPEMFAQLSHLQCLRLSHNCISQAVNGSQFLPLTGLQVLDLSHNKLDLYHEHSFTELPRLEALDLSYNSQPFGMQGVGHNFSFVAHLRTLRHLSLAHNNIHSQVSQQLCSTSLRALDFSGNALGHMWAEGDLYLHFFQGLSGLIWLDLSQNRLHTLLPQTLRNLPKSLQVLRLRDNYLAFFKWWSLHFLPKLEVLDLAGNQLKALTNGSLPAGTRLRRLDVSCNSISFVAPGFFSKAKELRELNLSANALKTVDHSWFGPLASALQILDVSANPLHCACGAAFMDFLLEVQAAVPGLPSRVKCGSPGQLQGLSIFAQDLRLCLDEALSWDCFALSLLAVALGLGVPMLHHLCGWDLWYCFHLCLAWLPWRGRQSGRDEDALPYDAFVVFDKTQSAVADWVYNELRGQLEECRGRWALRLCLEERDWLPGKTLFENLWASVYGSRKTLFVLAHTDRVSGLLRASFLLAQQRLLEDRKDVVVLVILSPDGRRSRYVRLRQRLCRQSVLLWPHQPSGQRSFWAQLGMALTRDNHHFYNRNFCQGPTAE
# Summary of the method: (§1)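 HEK-Blue cells overexpressing human TLR7, TLR8 or TLR9 with NF-κB/AP-1-driven SEAP reporter, pre-treated 60 min with compound ([…]). Stimulated with […] (TLR7), […] (TLR8) or ODN2006 200 nM (TLR9), then 22 h at 37° C; SEAP measured, % inhibition relative to agonist-plus-DMSO and known-inhibitor wells.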
# [2] = biological target: T2, human TLR7 (Homo sapiens, UniProt Q9NYK1); experiment: TLR7/8/9 Inhibition Reporter Assays (TLR7); conditions: HEK-Blue cells overexpressing human TLR7, SEAP reporter, stimulated with TLR7 ligand gardiquimod
# T2 construct: host or cells: HEK-Blue cells (HEK293-derived reporter line)
# T2 sequence (Q9NYK1 27-1049): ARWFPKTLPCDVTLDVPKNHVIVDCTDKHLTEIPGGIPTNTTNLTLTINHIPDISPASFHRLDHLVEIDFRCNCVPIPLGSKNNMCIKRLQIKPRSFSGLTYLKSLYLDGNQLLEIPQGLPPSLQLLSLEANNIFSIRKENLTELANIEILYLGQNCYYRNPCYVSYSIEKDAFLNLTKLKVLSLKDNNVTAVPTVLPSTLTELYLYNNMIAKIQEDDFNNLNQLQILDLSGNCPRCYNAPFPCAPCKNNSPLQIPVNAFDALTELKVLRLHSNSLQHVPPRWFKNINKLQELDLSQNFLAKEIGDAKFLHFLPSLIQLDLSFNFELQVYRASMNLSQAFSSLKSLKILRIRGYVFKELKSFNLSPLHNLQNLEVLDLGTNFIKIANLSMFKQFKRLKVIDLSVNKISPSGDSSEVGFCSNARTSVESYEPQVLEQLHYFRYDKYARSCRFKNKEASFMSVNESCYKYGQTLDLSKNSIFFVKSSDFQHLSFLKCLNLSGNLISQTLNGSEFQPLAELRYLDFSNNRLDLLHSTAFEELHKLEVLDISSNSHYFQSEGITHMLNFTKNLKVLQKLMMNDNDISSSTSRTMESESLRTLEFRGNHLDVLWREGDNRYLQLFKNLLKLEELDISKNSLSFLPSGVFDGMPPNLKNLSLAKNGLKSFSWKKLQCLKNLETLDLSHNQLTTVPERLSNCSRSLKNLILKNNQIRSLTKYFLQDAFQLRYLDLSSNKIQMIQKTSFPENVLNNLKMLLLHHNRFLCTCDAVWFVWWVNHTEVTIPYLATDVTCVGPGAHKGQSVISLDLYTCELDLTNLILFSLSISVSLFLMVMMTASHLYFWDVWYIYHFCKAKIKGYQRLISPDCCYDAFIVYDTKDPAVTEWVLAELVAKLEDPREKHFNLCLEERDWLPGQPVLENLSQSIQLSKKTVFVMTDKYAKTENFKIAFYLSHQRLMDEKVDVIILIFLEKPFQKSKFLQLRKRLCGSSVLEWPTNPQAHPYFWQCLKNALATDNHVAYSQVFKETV
# Summary of the method: as §1
# [3] = biological target: T3, human TLR8 (Homo sapiens, UniProt Q9NR97); experiment: TLR7/8/9 Inhibition Reporter Assays (TLR8); conditions: HEK-Blue cells overexpressing human TLR8, SEAP reporter, stimulated with TLR8 ligand R848
# T3 construct: host or cells: HEK-Blue cells (HEK293-derived reporter line)
# T3 sequence (Q9NR97 27-1041): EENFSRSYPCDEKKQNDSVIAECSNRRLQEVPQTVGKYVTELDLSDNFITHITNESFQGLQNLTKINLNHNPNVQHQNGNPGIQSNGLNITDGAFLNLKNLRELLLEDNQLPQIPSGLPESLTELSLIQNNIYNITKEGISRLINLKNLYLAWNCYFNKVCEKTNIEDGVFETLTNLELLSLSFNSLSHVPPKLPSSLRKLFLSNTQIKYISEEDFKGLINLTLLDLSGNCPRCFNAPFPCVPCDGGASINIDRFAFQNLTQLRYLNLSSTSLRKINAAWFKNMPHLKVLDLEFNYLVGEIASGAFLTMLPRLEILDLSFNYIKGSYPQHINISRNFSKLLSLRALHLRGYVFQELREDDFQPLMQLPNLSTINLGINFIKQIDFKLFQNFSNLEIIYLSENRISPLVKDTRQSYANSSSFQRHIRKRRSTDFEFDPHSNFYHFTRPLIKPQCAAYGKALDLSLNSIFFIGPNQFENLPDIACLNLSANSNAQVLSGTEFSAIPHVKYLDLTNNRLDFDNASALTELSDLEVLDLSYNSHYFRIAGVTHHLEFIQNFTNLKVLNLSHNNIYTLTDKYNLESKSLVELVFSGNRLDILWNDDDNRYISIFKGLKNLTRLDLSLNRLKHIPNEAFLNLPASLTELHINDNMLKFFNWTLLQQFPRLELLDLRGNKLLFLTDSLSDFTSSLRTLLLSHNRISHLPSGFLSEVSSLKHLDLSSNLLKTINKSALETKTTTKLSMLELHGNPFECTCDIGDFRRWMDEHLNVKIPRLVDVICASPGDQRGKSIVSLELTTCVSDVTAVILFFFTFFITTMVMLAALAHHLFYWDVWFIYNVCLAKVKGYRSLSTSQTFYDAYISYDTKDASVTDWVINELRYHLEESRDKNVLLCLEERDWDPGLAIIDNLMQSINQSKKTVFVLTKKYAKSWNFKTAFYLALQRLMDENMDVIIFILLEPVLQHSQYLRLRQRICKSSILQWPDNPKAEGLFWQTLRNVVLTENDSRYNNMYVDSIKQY
# Summary of the method: as §1
Structure (SMILES),IC50 [1] [nM],IC50 [2] [µM],IC50 [3] [µM]
"COc1ccc(-c2nc3cnc(-c4ccc(N5CC6(C5)CN(C(C)C)C6)cc4)cc3n2C2CC2)cc1OC [Example 84, 1-cyclopropyl-2-(3,4-dimethoxyphenyl)-6-(4-(6-isopropyl-2,6-diazaspiro[3.3]heptan-2-yl)phenyl)-1H-imidazo[4,5-c]pyridine]",180,4.4,2.2
"Cc1nc(-c2ccc(C3CCN(C(C)C)CC3)cc2)cc2c1nc(-c1ccc(S(C)(=O)=O)cc1)n2C [Example 2, 6-(4-(1-isopropylpiperidin-4-yl)phenyl)-1,4-dimethyl-2-(4-(methylsulfonyl)phenyl)-1H-imidazo[4,5-c]pyridine]",300,12,36
"Cc1nc(-c2ccc(C3CCN(CC4COC4)CC3)cc2)cc2c1nc(-c1ccc(S(C)(=O)=O)cc1)n2C [Example 29, 1,4-dimethyl-2-(4-(methylsulfonyl)phenyl)-6-(4-(1-(oxetan-3-ylmethyl)piperidin-4-yl)phenyl)-1H-imidazo[4,5-c]pyridine]",1100,13,> 50
"COc1ccc(-c2nc3c(C)nc(-c4ccc(N5C[C@H]6CN(CC(C)(C)O)C[C@H]6C5)cc4)cc3n2C)cc1OC [Example 94, 1-((3aR,6aS)-5-(4-(2-(3,4-dimethoxyphenyl)-1,4-dimethyl-1H-imidazo[4,5-c]pyridin-6-yl)phenyl)hexahydropyrrolo[3,4-c]pyrrol-2(1H)-yl)-2-methylpropan-2-ol]",250,2.6,44
"CC(C)CN1CCC(N2CC=C(c3cc4c(nc(-c5ccc(S(C)(=O)=O)cc5)n4C)c(C(F)(F)F)n3)CC2)CC1 [Example 36, 6-(1-(1-isobutylpiperidin-4-yl)-1,2,3,6-tetrahydropyridin-4-yl)-1-methyl-2-(4-(methylsulfonyl)phenyl)-4-(trifluoromethyl)-1H-imidazo[4,5-c]pyridine]",330,4.1,> 50
"Cc1nc(-c2ccc(N3CCN(CC(C)(C)O)CC3)cc2)cc2c1nc(-c1ccc(S(C)(=O)=O)cc1)n2C [Example 8, 1-(4-(4-(1,4-dimethyl-2-(4-(methylsulfonyl)phenyl)-1H-imidazo[4,5-c]pyridin-6-yl)phenyl)piperazin-1-yl)-2-methylpropan-2-ol]",890,6.4,13

# These reach a lower IC50 [1]. Values come first.
IC50 [1] [nM],IC50 [2] [µM],IC50 [3] [µM],Structure (SMILES)
79,0.81,2,"Cc1nc(-c2ccc(N3C[C@H]4CN(CC(C)(C)O)C[C@H]4C3)cc2)cc2c1nc(-c1ccc(S(C)(=O)=O)cc1)n2C [Example 93, 1-((3aR,6aS)-5-(4-(1,4-dimethyl-2-(4-(methylsulfonyl)phenyl)-1H-imidazo[4,5-c]pyridin-6-yl)phenyl)hexahydropyrrolo[3,4-c]pyrrol-2(1H)-yl)-2-methylpropan-2-ol]"
140,1.7,> 50,"COCCN1CC2(CCN(c3ccc(-c4cc5c(nc(-c6ccc(OC)c(OC)c6)n5C)c(C)n4)cc3)CC2)C1 [Example 103, 2-(3,4-dimethoxyphenyl)-6-(4-(2-(2-methoxyethyl)-2,7-diazaspiro[3.5]nonan-7-yl)phenyl)-1,4-dimethyl-1H-imidazo[4,5-c]pyridine]"
150,4,4.8,"Cc1nc(-c2ccc(N3CC4(CN(CC(C)C)C4)C3)cc2)cc2c1nc(-c1ccc(S(C)(=O)=O)cc1)n2C [Example 57, 6-(4-(6-isobutyl-2,6-diazaspiro[3.3]heptan-2-yl)phenyl)-1,4-dimethyl-2-(4-(methylsulfonyl)phenyl)-1H-imidazo[4,5-c]pyridine]"
130,1.1,3.7,"Cc1nc(-c2ccc(N3CC4(C3)CN(C3CCC3)C4)cc2)cc2c1nc(-c1ccc(S(C)(=O)=O)cc1)n2C [Example 79, 6-(4-(6-cyclobutyl-2,6-diazaspiro[3.3]heptan-2-yl)phenyl)-1,4-dimethyl-2-(4-(methylsulfonyl)phenyl)-1H-imidazo[4,5-c]pyridine]"
58,1,5.5,"Cc1nc(-c2ccc(CN3CCC(N4CCCC4)CC3)cc2)cc2c1nc(-c1ccc(S(C)(=O)=O)cc1)n2C [Example 46, 1,4-dimethyl-2-(4-(methylsulfonyl)phenyl)-6-(4-((4-(pyrrolidin-1-yl)piperidin-1-yl)methyl)phenyl)-1H-imidazo[4,5-c]pyridine]"
110,5.8,> 50,"Cc1nc(-c2ccc(N3CCC(N4CCCC4)CC3)cc2)cc2c1nc(-c1ccc(S(C)(=O)=O)cc1)n2C [Example 41, 1,4-dimethyl-2-(4-(methylsulfonyl)phenyl)-6-(4-(4-(pyrrolidin-1-yl)piperidin-1-yl)phenyl)-1H-imidazo[4,5-c]pyridine]"
